Entries after “also recorded” stand apart in the source; their conditions may differ.
Experiments:
[1] = biological target: human Galectin-3 (GAL3) (human) (UniProt P17931); test: cell-based or functional assay
[2] = system: PD1+ or LAG3+ T cells in BMMC from MM patients; test: Checkpoint (PD1, LAG3) expression on T cells in MM patient BMMC after modulator treatment, flow cytometry; assay type: cell-based, human; conditions: for upregulation / induction of other immune checkpoints: MM patient BMMC, among clinical grade checkpoint inhibitors and immune agonists evaluated (discussion)
Experimental: (§1) BMMC or PBMC from patients with MGUS, SMM, MM or healthy individuals were evaluated by flow cytometry analyses by staining cells with fluorochrome-conjugated mAb specific to each cell surface antigen for 30 minutes at room temperature, followed by LIVE/DEAD reagent staining to confirm viability. Regulatory T cells (Treg) were identified by cell surface staining (CD3, CD4, CD8, CD25), permeabilized using Foxp3/Transcription Factor Staining Buffer Set (eBioscience) and stained for intracellular FOXP3 expression. Myeloid-derived-suppressor cells (MDSC) were identified as G-type MDSC (CD11b+CD33+ HLA-DRlow/−CD14−CD15+) and M-type MDSC (CD11b+CD33+ HLA-DRlow/−CD14+CD15−). Cells were acquired using a BD Fortessa X-20 (BD Biosciences) flow cytometer, and the data was analyzed using DIVA™ v8.0 (BD) or FlowJo v10.0.7 (Tree star, Ashland, OR) software.
(§2) Proliferation of specific cell populations was evaluated using CFSE-based proliferation assays. In brief, MM patient BMMC, PBMC or XBP1/CD138/CS1-specific CTL were labeled with CFSE (Molecular Probes, Eugene, OR) and incubated with clinical grade checkpoint inhibitor (1 μg/ml) or immune agonist (1 μg/ml) in the presence of low dose (20 units) IL-2, with or without stimulation with irradiated MM cells (patients' cells, cell line) or MM lysates. After 4-7 days incubation, the cells were stained with LIVE/DEAD reagent and specific fluorochrome conjugated mAbs, washed, fixed in 2% paraformaldehyde, and acquired using a LSRII Fortessa™ flow cytometer.

[3] = system: CD4+ Treg in BMMC from MM patients; test: Treg proliferation in MM patient BMMC after modulator treatment; assay type: cell-based, human; conditions: for Treg proliferation: BMMC of MM patients (N=5), single agents compared, FIG. 5B
Experimental: as §1, §2

[4] = system: XBP1/CD138/CS1-specific CD8+ CTL stimulated with U266 MM cells; test: CFSE proliferation of XBP1/CD138/CS1-specific CTL in response to HLA-A2+ U266 MM cells; assay type: cell-based, human; conditions: CTL (N=5) treated with antibody, α-LAG3>α-PD-1, FIG. 6B
Experimental: (§3) XBP1/CD138/CS1-specific CTL were generated ex vivo after four cycles of weekly stimulation of HLA-A2^+ CD3^+ T lymphocytes (N=5) with a cocktail of four peptides containing heteroclitic XBP1 US184-192 (YISPWILAV (SEQ ID NO: 24)), heteroclitic XBP1 SP367-375 (YLFPQLISV (SEQ ID NO: 25)), native CD138260-268 (GLVGLIFAV (SEQ ID NO: 26)) and native CS1239-247 (SLFVLGLFL (SEQ ID NO: 27)), as described previously.
as §2

[5] = system: T cells (CD3+, CD4+ Th, CD8+ Tc) in BMMC from MM patients; test: CFSE proliferation of T cells in MM patient BMMC treated with checkpoint inhibitor, immune agonist or LAG3-ligand antibody; assay type: cell-based, human; conditions: for CD3+ T cell proliferation: BMMC, newly diagnosed, relapsed or relapsed/refractory MM (N=10), vs untreated control
Description: BM aspirates and peripheral blood (PB) samples were obtained from patients with MGUS [BM: N=5, PB: N=5] and SMM [BM: N=5, PB: N=5] and patients with MM (Newly Diagnosed [BM: N=15, PB: N=10], Relapsed [BM: N=12, PB: N=12], Relapsed/Refractory [BM: N=15, PB: N=12]) after informed consent, in accordance with the Declaration of Helsinki, and with approval by the Institutional Review Board at Dana-Farber Cancer Institute (Boston, MA). In addition, healthy individuals BM [N=5] or leukapheresis [N=5] products were purchased from either AllCells (Alameda, CA) or the Blood Donor Center at Boston Children's Hospital (Boston, MA), respectively. Mononuclear cells were isolated from BM (BMMC) or PB (PBMC) by standard density gradient centrifugation using Ficoll-Paque™ Plus (Amersham Pharmacia Biotech AB, Uppsala Sweden) and used in these studies.
as §2

[6] = system: T cells in BMMC from MM patients; test: CFSE T cell proliferation in MM patient BMMC stimulated with irradiated tumor cells or tumor lysates; assay type: cell-based, human; conditions: BMMC (N=5), FIG. 9; for enhancement of tumor-lysate-induced T cell response: checkpoint inhibitors (anti-LAG3>anti-PD1) more than immune agonists
Experimental: (§4) Multiple myeloma (MM) cell lines U266, McCAR, HSB2, MMIS, RPMI8226, OPM2, H929, ANBL6, OCIMY5, AMO1 and KMS11 were obtained from ATCC (Manassas, VA). The T2 cell line, a human B and T cell hybrid expressing HLA-A2 molecules, was provided by Dr. J. Molldrem (University of Texas M. D. Anderson Cancer Center, Houston, TX). The cell lines were cultured in DMEM media supplemented with 10% fetal calf serum (FCS; BioWhittaker, Walkersville, MD), 100 IU/ml penicillin, and 100 μg/ml streptomycin (Gibco-Life Technologies, Rockville, MD). A mixture of ten MM cell lines was utilized to prepare tumor cell lysates by repeated (10×) cycles of freeze (−140° C.)/thaw (37° C.) or prepared as irradiated (20 Gy) whole tumor cells as sources of MM antigen stimulation.
as §2

[7] = system: CD3+ T cells in PBMC from MM patients; test: CFSE T cell proliferation in MM patient PBMC with or without MM lysate stimulation; assay type: cell-based, human; conditions: newly diagnosed (N=6) or relapsed (N=3) MM, presence or absence of MM lysate, vs anti-PD1, anti-OX40, anti-GITR, FIG. 1C
Experimental: as §4
BM aspirates and peripheral blood (PB) samples were obtained from patients with MGUS [BM: N=5, PB: N=5] and SMM [BM: N=5, PB: N=5] and patients with MM (Newly Diagnosed [BM: N=15, PB: N=10], Relapsed [BM: N=12, PB: N=12], Relapsed/Refractory [BM: N=15, PB: N=12]) after informed consent, in accordance with the Declaration of Helsinki, and with approval by the Institutional Review Board at Dana-Farber Cancer Institute (Boston, MA). […]
Proliferation of specific cell populations was evaluated using CFSE-based proliferation assays. […]

U266 MM cells = test: CD107a degranulation and intracellular IFN-γ production of XBP1/CD138/CS1-specific CTL against MM; assay type: cell-based, human; conditions: CTL treated 1 μg/ml antibody 24 hours, then cultured with U266; FIG. 6C
Experimental: as §3
The anti-tumor activities of MM-specific CTL were measured by CD107a degranulation and IFN-γ production against MM. In brief, XBP1/CD138/CS1-specific CTL were treated with clinical grade anti-PD1 or anti-LAG3 (1 μg/ml) for 24 hours. The cells were then cultured with U266 MM cells in the presence of CD107a mAb. After 1-hour incubation, Brefeldin A (BD) and Monensin (BD) were added, and cultures were incubated for an additional 5 hours. Cells were harvested, washed in PBS, stained with LIVE/DEAD reagent, washed, incubated with fluorochrome conjugated mAb to identify T cells, allowing for assays of their functional activity against MM. After surface staining, cells were fixed/permeabilized, stained for Th1 cytokines, washed with Perm/Wash solution (BD), and analyzed by flow cytometry. MP-CTL specific CD107a degranulation and Th1 cytokine production were analyzed using DIVA™ v8.0 or FlowJo v10.0.7 software.

[8] = BMMC of MM patients (N=10), FIG. 5A
[9] = BMMC of MM patients (N=10), antibody 1 μg/ml, low dose IL-2, FIG. 1B
[10] = antibody 1 μg/ml, low dose IL-2, FIG. 1B

Sequence of UniProt P17931 (P17931 2-250 limits assumed): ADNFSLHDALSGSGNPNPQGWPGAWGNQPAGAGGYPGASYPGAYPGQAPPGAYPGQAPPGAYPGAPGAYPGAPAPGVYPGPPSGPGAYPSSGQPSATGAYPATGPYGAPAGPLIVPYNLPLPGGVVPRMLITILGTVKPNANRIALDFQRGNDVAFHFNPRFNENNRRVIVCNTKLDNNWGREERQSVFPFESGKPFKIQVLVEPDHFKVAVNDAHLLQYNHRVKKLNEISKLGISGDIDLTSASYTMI

Substance: Anti-GAL3 antibody (BD, Clone B2C10; Cat Nos.: 565676-565678, and 565682)
- proliferation of CD4+Th cells in newly diagnosed MM patient BMMC, Patient #1 [1]: 13%
- proliferation of CD4+Th cells in newly diagnosed MM patient BMMC, Patient #2 [1]: 9%
- proliferation of CD8+Tc cells in newly diagnosed MM patient BMMC, Patient #1 [1]: 45%
- proliferation of CD8+Tc cells in newly diagnosed MM patient BMMC, Patient #2 [1]: 38%

Substance: anti-LAG3: Clinical grade checkpoint inhibitor, anti-LAG3 antibody Relatlimab, provided by Bristol-Myers Squibb
- upregulation of PD1 and LAG3 expression on T cells [2, 8]: induce upregulation
- upregulation / induction of other immune checkpoints [2]: lowest level
- impact of treatment on G-type MDSC and Tregs ([3]; BM milieu of MM patients (discussion)): low
- Treg proliferation [3]: lowest induction; also recorded: lowest level
- proliferation of total CD8+ T cells and Central Memory, Effector Memory, CD28+ and CD38+ CTL subsets [4]: significantly increase; also recorded: enhanced proliferation
- proliferation of CD4+ Th cells [5, 9]: significant increase; also recorded: highest proliferation
- proliferation of CD8+ Tc cells [5, 9]: increased; also recorded: highest proliferation
- CD3+ T cell proliferation [5, 10]: triggered
- effector T cell proliferation ([5]; among clinical grade checkpoint inhibitors and immune agonists evaluated (discussion)): most robust
- T cell responses in BMMC/PBMC from MM patients compared with healthy donors ([5]; discussion): significantly increased
- enhancement of tumor-lysate-induced T cell response [6]: enhanced to a greater extent
- T cell proliferation ([6]; mixture of ten MM cell lines as irradiated whole cells or tumor lysates, vs other immune modulators): significantly higher
- T cell proliferation [7]: significantly (*p<0.05) higher
- CD107a degranulation (U266 MM cells): highest anti-tumor activities
- IFN-γ production (U266 MM cells): highest anti-tumor activities

Substance: anti-PD1: Clinical grade checkpoint inhibitor, anti-PD1 antibody Nivolumab, provided by Bristol-Myers Squibb
- proliferation of T cells expressing an alternative immune checkpoint [2, 8]: to a greater extent than anti-LAG3 treatment
- upregulation of PD1 and LAG3 expression on T cells [2, 8]: induce upregulation
- upregulation / induction of other immune checkpoints [2]: highest level
- upregulation / induction of other immune checkpoints ([2]; listed as anti-PD-1 antibody): upregulate
- Treg proliferation [3]: high induction; also recorded: highest level
- expansion of Treg cells, single agent ([3]; BMMC, relapsed/refractory MM (N=3), FIG. 5C): significant (*p<0.05) expansion
- proliferation of total CD8+ T cells and Central Memory, Effector Memory, CD28+ and CD38+ CTL subsets [4]: significantly increase
- proliferation of CD4+ Th cells [5, 9]: significant increase
- CD3+ T cell proliferation [5, 10]: triggered
- enhancement of tumor-lysate-induced T cell response [6]: enhanced to a greater extent

From patent US20240285740A1, “COMPOSITIONS AND METHODS FOR TREATING CANCER” (Dana-Farber Cancer Institute, Inc., priority 2021, published 2024)
